Where “and” joins values, the source holds several entries; their conditions need not be identical. Identical values can stand only once. Entries after “also recorded” stand apart in the source; their conditions may differ.
Tests used:
S. aureus [1] = assay: Tertiary stage: antimicrobial activity (ET50/MIC) of extract of degradation products of antibiotic-impregnated ORC pads, single or combination; type: cell-based, Staphylococcus aureus; settings: for Fold reduction in MIC concentration: primary MIC (antibiotic alone) versus antibiotic-impregnated ORC (tertiary) MIC; for MIC times higher than that of the primary stage MIC: antibiotic impregnated onto ORC pad
Description: Solutions comprising different concentrations of antibiotics to be tested were prepared in methanol.
Blank ORC pads of dimensions 1×1.5 inch, weighing between 65-75 mg (70 mg on average), in duplicate, were immersed in the antibiotic solutions and then dried using a rotary evaporator to provide extract of degradation products of antibiotic-impregnated ORC pads.
15 ml test tubes containing 3 ml of sterile PBS were prepared, and the antibiotic-impregnated ORC pads were immersed in the tubes and incubated for 3-5 hours at ambient temperature on a roller mixer (Stuart, Cat#SRT9D).
Each of the above extracts was filtered out using a sterile 0.8/0.2 μm syringe filter into a clean 15 ml tube. These extraction fluids are referred to herein as “extract of degradation products of antibiotic-impregnated ORC”.
Briefly, ORC pads weighing on average 70 mg each were impregnated with the selected antibiotic. Extracts of degradation products of antibiotic-impregnated ORC were prepared by immersion and incubation in 3 ml of sterile PBS for 3 hours at ambient temperature. The ORC degeneration products were then removed, and any remaining ORC particles were filtered out using a […] syringe filter. This extraction fluid was then diluted 10-fold into Muller Hinton growth medium containing bacteria. Bacterial growth was monitored every 20 min for a total of 18 hours according to optical density (OD) at 600 nm, using an ELISA reader.
Since the study included many possible combinations of two antibiotics, each with their own different concentration range, a matrix of possible antibiotic concentrations was designed, and degradation products of ORC were prepared accordingly (see Table 10). Since all the possible combinations could not be fitted into one 96 well plate, a series of MIC experiments were carried out.

S. aureus [2] = assay: Secondary stage: bacterial growth (ET50/MIC) of antibiotics with or without extract of degradation products of ORC; type: cell-based, Staphylococcus aureus
Text: ORC pads which had not been impregnated with antibiotic (referred to herein as “blank ORC pads”), were subjected to extraction and degradation in PBS for three hours at ambient temperature. Extract obtained from these blank ORC pads is referred to herein as “blank extract of degradation products of ORC”.
Blank ORC pads were subjected to extraction and degradation in a solution of antibiotic in PBS. Extracts of degradation products obtained from blank ORC pads in a solution of antibiotic in PBS is referred to herein as “extracts of degradation products of blank ORC in antibiotic”.
Due to the acidity of ORC, which provides some antibiotic effect, the size of the pad used was small i.e. approximately 1×1.5 inch, weighing between 65-75 mg (70 mg on average) in order to prevent the ORC from affecting the final pH of the assay and therefore the growth of the bacteria.
15 ml tubes, each containing 3 ml of an antibiotic solution at a known concentration in sterile PBS, were prepared in duplicate.
Blank ORC pads were subjected to extraction and degradation in the antibiotic solution by immersing the ORC pads in the antibiotic solution for 3-5 hours at ambient temperature on a roller mixer (Stuart, Cat#SRT9D).
Blank extract of degradation products of ORC and extract in antibiotic of degradation products of ORC, prepared as described above, were diluted 10 folds in MHBII in sterile 15 ml capped tubes.
The 5×10^6 CFU/ml stock suspension which had been prepared in advance was transferred into a reservoir and 10 μl of the stock suspension were added into each well of columns 2-11 using a multichannel pipette to obtain a final 5×10^5 CFU/ml suspension.
Columns 3 to 6, rows B to F, were filled with the Blank ORC extracted in antibiotic at decreasing concentrations 1 to 5, diluted 10 folds in MHBII. Each sample tested was placed in 4 well repeats for statistical results.
Columns 7 to 10, rows B to F, were filled with the antibiotic solution (AB) at decreasing concentrations 1 to 5, diluted 10 folds in MHBII. Each sample tested was placed in 4 well repeats for statistical results.
Columns 3 to 6, row G, were filled with the blank extract of degradation products of ORC (PBS-ORC) diluted 10 folds in MHBII.
The plate was incubated at 37° C. with shaking in the ELISA reader and the optical density at 600 nm was read every 20 minutes for a total of 18 hours.
The average and standard deviation for OD readings was calculated for each time point of the wells using Excel. The average values were plotted against time to obtain a graph of the bacterial growth curves in the presence of each of the antibiotics tested.
In some cases, the average OD was plotted for a single endpoint of 800 minutes for the various antibiotic treatments and controls.
The average values were also entered into the GraphPad Prism program (GraphPad Software Inc., CA, USA) in order to calculate the Effective Time 50 (ET50) i.e. the time, in minutes, required for the antibiotic to induce a response halfway between the baseline and maximum, where the maximum is the bacterial growth in MHBII with PBS. This provides a quantifiable measure of the efficacy of the antibiotics tested and enables comparison of the various samples tested.

## CN(C)c1ccc(O)c2c1C[C@H]1C[C@H]3[C@H](N(C)C)C(O)=C(C(N)=O)C(=O)[C@@]3(O)C(O)=C1C2=O [Minocycline, minocycline]
S. aureus [1]
  MIC fold lower in the presence of degradation products of ORC than in their absence: at least 5.8 fold
  Fold reduction in MIC concentration: 20 and 19.85
S. aureus [1]; combination with rifampin or clindamycin, with ORC degradation products
  Fold reduction of the MIC for minocycline with at least one more antibiotic impregnated on ORC, versus minocycline alone: 200 fold
S. aureus [1]; impregnated ORC extract, minocycline 1.26 ng/ml, clindamycin 0.00 ng/ml
  ET50: 637.6 min
S. aureus [1]; impregnated ORC extract, minocycline 1.26 ng/ml, rifampin 0.00 ng/ml
  ET50: 585.4 min
S. aureus [1]; impregnated ORC extract, minocycline 2.52 ng/ml, clindamycin 0.00 ng/ml
  ET50: 1072 min
S. aureus [1]; impregnated ORC extract, minocycline 2.52 ng/ml, rifampin 0.00 ng/ml
  ET50: 799.9 min
S. aureus [1]; impregnated ORC extract, minocycline 5.04 ng/ml, clindamycin 0.00 ng/ml
  ET50: >2000 min
S. aureus [1]; impregnated ORC extract, minocycline 5.04 ng/ml, rifampin 0.00 ng/ml
  ET50: >2000 min
S. aureus [1]; impregnated ORC extract, minocycline 6.30 ng/ml, clindamycin 0.00 ng/ml
  ET50: >2000 min
S. aureus [1]; impregnated ORC extract, minocycline 6.30 ng/ml, rifampin 0.00 ng/ml
  ET50: >2000 min
S. aureus [1]; minocycline-impregnated ORC extract, impregnation fluid 5 μg/ml, 0.00027 % on ORC, 6.30 ng/ml in MIC
  ET50: 1145 min
S. aureus [1]; minocycline-impregnated ORC extract, impregnation fluid 10 μg/ml, 0.00054 % on ORC, 12.60 ng/ml in MIC
  ET50: 2000 min
S. aureus [1]; minocycline-impregnated ORC extract, impregnation fluid 20 μg/ml, 0.00108 % on ORC, 25.20 ng/ml in MIC
  ET50: >2000 min
S. aureus [1]; minocycline-impregnated ORC extract, impregnation fluid 40 μg/ml, 0.00216 % on ORC, 50.40 ng/ml in MIC
  ET50: >2000 min
S. aureus [2]; minocycline 0.05 μg/ml, +ORC degradation products
  ET50: 901.1 min
S. aureus [2]; minocycline 0.05 μg/ml, +ORC degradation products, listed as minocycline
  ET50: 901 min
S. aureus [2]; minocycline 0.05 μg/ml, −ORC
  ET50: 428.1 min
S. aureus [2]; minocycline 0.1 μg/ml, +ORC degradation products
  ET50: >2000 min
S. aureus [2]; minocycline 0.1 μg/ml, +ORC degradation products, listed as minocycline
  ET50: over 2000 minutes
S. aureus [2]; minocycline 0.1 μg/ml, −ORC
  ET50: 555.1 min
S. aureus [2]; minocycline 0.1 μg/ml, −ORC, listed as minocycline
  ET50: 555 min
S. aureus [2]; minocycline 0.2 μg/ml, +ORC degradation products
  ET50: >2000 min
S. aureus [2]; minocycline 0.2 μg/ml, +ORC degradation products, listed as minocycline
  ET50: over 2000 minutes
S. aureus [2]; minocycline 0.2 μg/ml, −ORC
  ET50: 1771 min
S. aureus [2]; minocycline 0.4 μg/ml, +ORC degradation products
  ET50: >2000 min
S. aureus [2]; minocycline 0.4 μg/ml, −ORC
  ET50: >2000 min
S. aureus [2]; minocycline 0.4 μg/ml, −ORC, listed as minocycline
  ET50: above 2000 minutes
S. aureus [2]; minocycline 0.5 μg/ml, +ORC degradation products
  ET50: >2000 min
S. aureus [2]; minocycline 0.5 μg/ml, −ORC
  ET50: >2000 min

## CO[C@H]1/C=C/O[C@@]2(C)Oc3c(C)c(O)c4c(O)c(c(/C=N/N5CCN(C)CC5)c(O)c4c3C2=O)NC(=O)/C(C)=C\C=C\[C@H](C)[C@H](O)[C@@H](C)[C@@H](O)[C@@H](C)[C@H](OC(C)=O)[C@@H]1C [Rifampin, rifampin]
S. aureus [1]
  Change of antimicrobial activity when impregnated onto the ORC pad versus first stage MIC: impaired
  MIC times higher than that of the primary stage MIC: 50 times
  Fold reduction in MIC concentration: 0.019
S. aureus [1]; listed as rifampin
  MIC times higher than that of the primary stage MIC: about 50 times
S. aureus [1]; impregnated ORC extract, minocycline 0.00 ng/ml, rifampin 73.29 ng/ml
  ET50: 406.8 min
S. aureus [1]; impregnated ORC extract, minocycline 0.00 ng/ml, rifampin 146.58 ng/ml
  ET50: 442.3 min
S. aureus [1]; impregnated ORC extract, minocycline 0.00 ng/ml, rifampin 293.16 ng/ml
  ET50: 450.4 min
S. aureus [1]; impregnated ORC extract, minocycline 0.00 ng/ml, rifampin 366.45 ng/ml
  ET50: 418.1 min
S. aureus [1]; rifampin-impregnated ORC extract, impregnation fluid 50 μg/ml, 0.015705 % on ORC, 366.45 ng/ml in MIC
  ET50: 643 min
S. aureus [1]; rifampin-impregnated ORC extract, impregnation fluid 100 μg/ml, 0.03141 % on ORC, 732.9 ng/ml in MIC
  ET50: 1396 min
S. aureus [1]; rifampin-impregnated ORC extract, impregnation fluid 150 μg/ml, 0.047115 % on ORC, 1099.35 ng/ml in MIC
  ET50: >2000 min
S. aureus [1]; rifampin-impregnated ORC extract, impregnation fluid 200 μg/ml, 0.06282 % on ORC, 1465.8 ng/ml in MIC
  ET50: >2000 min
S. aureus [2]; antibiotic with versus without ORC degradation products
  Effect of addition of degradation products of ORC on the antibiotic activity: reduction in the antibiotic activity; also recorded: interfere with the antibiotic activity; also recorded: lowering of the antibiotic activity; also recorded: impaired
S. aureus [2]; rifampin 0.015 μg/ml, +ORC degradation products
  ET50: 440.5 min
S. aureus [2]; rifampin 0.015 μg/ml, −ORC
  ET50: 470.7 min
S. aureus [2]; rifampin 0.031 μg/ml, +ORC degradation products
  ET50: 436.3 min
S. aureus [2]; rifampin 0.031 μg/ml, −ORC
  ET50: 448.4 min
S. aureus [2]; rifampin 0.062 μg/ml, +ORC degradation products
  ET50: 432.8 min
S. aureus [2]; rifampin 0.062 μg/ml, +ORC degradation products, listed as rifampin
  ET50: 430 min
S. aureus [2]; rifampin 0.062 μg/ml, −ORC
  ET50: 669.1 min
S. aureus [2]; rifampin 0.125 μg/ml, +ORC degradation products
  ET50: 432.3 min
S. aureus [2]; rifampin 0.125 μg/ml, +ORC degradation products, listed as rifampin
  ET50: around 430 minutes
S. aureus [2]; rifampin 0.125 μg/ml, −ORC
  ET50: no growth at all
S. aureus [2]; rifampin 0.25 μg/ml, +ORC degradation products
  ET50: 430.8 min
S. aureus [2]; rifampin 0.25 μg/ml, +ORC degradation products, listed as rifampin
  ET50: around 430 minutes
S. aureus [2]; rifampin 0.25 μg/ml, −ORC
  ET50: no growth at all

— patent US20190184069A1, “ANTIMICROBIAL COMPOSITIONS COMPRISING MINOCYCLINE AND DEGRADATION PRODUCTS OF OXIDIZED CELLULOSE” (Omrix Biopharmaceuticals Ltd., priority 2017, published 2019)
